# From patent publication US9266870B2 (TAISHO PHARMACEUTICAL CO., LTD., priority 2012, dated 2016)
# Read-outs that look alike come from different tables or passages of the source.
# How the values were obtained:
# [1] = target: human orexin-1 receptor (hOX1R) (Homo sapiens (Human), UniProt O43613); assay: Measurement of orexin antagonistic activity (intracellular Ca2+ fluorescence, FDSS), hOX1R; assay type: cell-based; settings: ligand peptide (modified human orexin-A) 300 pM, maximum fluorescence intensity
# Description: (§1) Chinese hamster ovary (CHO) cells forcibly expressing the hOX1R and hOX2R were seeded into a 96 well Black clear bottom plate (Nunc) at 20,000 cells per well, which were cultured in Ham's F-12 medium containing 0.1 mM MEM non-essential amino acids, 0.5 mg/ml G418, 10% fetal bovine serum (all by Invitrogen) for 16 hours under the conditions of 37° C., 5% CO2. After removing the medium, 100 μL of 0.5 μM Fluo-4AM ester (Dojin) in an assay buffer (25 mM HEPES (Dojin), Hank's balanced salt solution (Invitrogen), 0.1% bovine serum albumin, 2.5 mM probenecid, 200 μg/ml Amaranth (all by Sigma-Aldrich), pH 7.4) was added and the cells were incubated for 60 minutes at 37° C., 5% CO2. After removing the assay buffer containing fluo-3AM ester, the test compound was dissolved in dimethyl sulfoxide to be 10 mM and diluted with the assay buffer, 150 μL of which was added and incubated for 30 minutes.
# (§2) The reaction was measured for the fluorescence intensity of each well every second for 3 minutes using Functional Drug Screening System (FDSS; Hamamatsu Photonics K.K.), and the antagonistic activity was determined using the maximum fluorescence intensity as the indicator of intracellular Ca2+ concentration.
# [2] = target: human orexin-2 receptor (hOX2R) (Homo sapiens (Human), UniProt O43614); assay: Measurement of orexin antagonistic activity (intracellular Ca2+ fluorescence, FDSS), hOX2R; assay type: cell-based; settings: CHO cells forcibly expressing hOX2R; ligand peptide (modified human orexin-A) 3 nM; maximum fluorescence intensity; read-out: IC50 Value OX2
# Description: as §1, with “The antagonistic activities of the test compounds on human orexin-1 receptor (hOX1R) and orexin-2 receptor (hOX2R) were measured by modifying from the method described in literature (Toshikatsu Okumura et al., Biochemical and Biophysical Research Communications 280, 976-981, 2001). Chinese” for “Chinese”
# as §2
# [3] = CHO cells forcibly expressing hOX1R, read-out: IC50 Value OX1
# Chain of human orexin-1 receptor (hOX1R) (O43613 whole entry): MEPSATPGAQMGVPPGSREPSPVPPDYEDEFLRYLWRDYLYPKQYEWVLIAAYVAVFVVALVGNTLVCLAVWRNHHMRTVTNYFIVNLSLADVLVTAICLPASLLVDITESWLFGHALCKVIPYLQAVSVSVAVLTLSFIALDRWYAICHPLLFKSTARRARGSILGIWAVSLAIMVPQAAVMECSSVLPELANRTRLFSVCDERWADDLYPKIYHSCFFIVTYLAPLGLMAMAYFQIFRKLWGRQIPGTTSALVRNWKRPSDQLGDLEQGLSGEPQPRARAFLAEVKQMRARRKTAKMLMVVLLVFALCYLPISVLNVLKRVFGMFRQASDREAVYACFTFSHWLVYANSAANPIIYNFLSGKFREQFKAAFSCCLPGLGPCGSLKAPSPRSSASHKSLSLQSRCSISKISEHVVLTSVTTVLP
# Chain of human orexin-2 receptor (hOX2R) (O43614 whole entry): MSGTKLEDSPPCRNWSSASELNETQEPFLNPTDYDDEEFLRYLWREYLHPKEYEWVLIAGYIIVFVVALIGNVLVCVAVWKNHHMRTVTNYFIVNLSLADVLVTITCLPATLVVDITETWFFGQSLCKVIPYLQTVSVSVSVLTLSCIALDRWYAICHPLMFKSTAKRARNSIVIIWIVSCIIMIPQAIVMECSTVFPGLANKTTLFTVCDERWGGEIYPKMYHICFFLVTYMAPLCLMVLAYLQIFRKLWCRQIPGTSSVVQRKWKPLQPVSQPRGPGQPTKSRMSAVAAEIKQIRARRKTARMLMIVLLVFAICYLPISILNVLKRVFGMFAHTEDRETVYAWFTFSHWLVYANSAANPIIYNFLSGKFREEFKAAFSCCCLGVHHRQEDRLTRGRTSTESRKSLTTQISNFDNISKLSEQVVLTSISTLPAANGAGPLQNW
SMILES,"IC50 [1, 3]",IC50 [2],"IC50 ([1]; IC50 Value OX1, CHO cells forcibly expressing hOX1R)"
"O=C(c1cc(F)ccc1-n1nccn1)N1CCOC1Cn1ccc(-c2ccc(F)cc2)n1 (racemic) [Example 19, (±)-(2-[[3-(4-fluorophenyl)-1H-pyrazol-1-yl]methyl]-1,3-oxazolidin-3-yl)[5-fluoro-2-(2H-1,2,3-triazol-2-yl)phenyl]methanone]",76.8 nM,233 nM,–
"O=C(c1ccccc1-n1nccn1)N1CCOC1Cn1ccc(-c2ccc(F)cn2)n1 (racemic) [Example 11, (±)-(2-{[3-(5-Fluoropyridin-2-yl)-1H-pyrazol-1-yl]methyl}-1,3-oxazolidin-3-yl)[2-(2H-1,2,3-triazol-2-yl)phenyl]methanone]",17.5 nM,252 nM,–
"Cc1ccc(-n2nccn2)c(C(=O)N2CCCOC2Cn2cc(-c3ccc(F)cc3)cn2)c1 (single isomer, unassigned; (-)) [Example 35, (−)-[2-[[4-(4-fluorophenyl)-1H-pyrazol-1-yl]methyl]-1,3-oxazinan-3-yl][5-methyl-2-(2H-1,2,3-triazol-2-yl)phenyl]methanone]",–,–,0.8 nM
"O=C(c1cc(F)ccc1-n1nccn1)N1CCOC1Cn1ccc(-c2ccc(F)cn2)n1 (racemic) [Example 12, (±)-(2-[[3-(5-fluoropyridin-2-yl)-1H-pyrazol-1-yl]methyl]-1,3-oxazolidin-3-yl) [5-fluoro-2-(2H-l,2,3-triazol-2-yl)phenyl]methanone]",–,171 nM,–
"Cc1ccc(-n2nccn2)c(C(=O)N2[C@H](C)CO[C@H]2Cn2ccc(-c3ccc(F)cn3)n2)c1 [Example 7, [(2S,4R)-2-[[3-(5-fluoropyridin-2-yl)-1H-pyrazol-1-yl]-methyl]-4-methyl-1,3-oxazolidin-3-yl] [5-methyl-2-(2H-1,2,3-triazol-2-yl)phenyl] methanone]",7.2 nM,–,–
"Cc1ccc(-n2nccn2)c(C(=O)N2CCOC2Cn2ccc(-c3ccc(F)cc3)n2)c1 (racemic) [Example 17, (±)-(2-[[3-(4-fluorophenyl)-1H-pyrazol-1-yl]methyl]-1,3-oxazolidin-3-yl)[5-methyl-2-2H-1,2,3-triazol-2-yl) phenyl]methanone]",5.1 nM,–,–
"Cc1ccc(-n2nccn2)c(C(=O)N2CCOC2Cn2ccc(-c3ccc(F)cn3)n2)c1 (single isomer, unassigned; (-)) [Example 1, (−)-(2-{[3-(5-Fluoropyridin-2-yl)-1H-pyrazol-1-yl]methyl}-1,3-oxazolidin-3-yl)[5-methyl-2-(2H-1,2,3-triazol-2-yl)phenyl]methanone]",4.9 nM,–,–
"Cc1ccc(-n2nccn2)c(C(=O)N2[C@H](Cn3ccc(-c4ccc(F)cn4)n3)OC[C@@H]2C)c1 [Example 9, (−)-[(2S,4S)-2-[[3-(5-fluoropyridin-2-yl)-1H-pyrazol-1-yl]-methyl]-4-methyl-1,3-oxazolidin-3-yl] [5-methyl-2-(2H-1,2,3-triazol-2-yl)phenyl] methanone]",23.4 nM,–,–
"Cc1ccc(-n2nccn2)c(C(=O)N2CCCOC2Cn2cc(-c3ccc(F)cn3)cn2)c1 (single isomer, unassigned; (-)) [Example 4, (−)-(2-[[4-(5-fluoropyridin-2-yl)-1H-pyrazol-1-yl]-methyl]-1,3-oxazinan-3-yl)[5-methyl-2-(2H-1,2,3-triazol-2-yl)phenyl] methanone]",9.6 nM,–,–
"Cc1ccc(-n2nccn2)c(C(=O)N2C[C@@H](C)O[C@H]2Cn2cc(-c3ccc(F)cn3)cn2)c1 [Example 6, (−)-[(2S,5R)-2-[[4-(5-fluoropyridin-2-yl)-1H-pyrazol-1-yl]methyl]-5-methyl-1,3-oxazolidin-3-yl] [5-methyl-2-(2H-1,2,3-triazol-2-yl)phenyl] methanone]",27.5 nM,–,–
"Cc1ccc(-n2nccn2)c(C(=O)N2C[C@H](C)O[C@H]2Cn2cc(-c3ccc(F)cn3)cn2)c1 [Example 5, (−)-[(2S,5S)-2-{[4-(5-Fluoropyridin-2-yl)-1H-pyrazol-1-yl]methyl}-5-methyl-1,3-oxazolidin-3-yl][5-methyl-2-(2H-1,2,3-triazol-2-yl)phenyl]methanone]",86 nM,–,–

# Continued, in another order:
"IC50 [1, 3]",IC50 [2],SMILES,"IC50 ([1]; IC50 Value OX1, CHO cells forcibly expressing hOX1R)"
60.4 nM,–,"O=C(c1cc(F)ccc1-c1ncccn1)N1CCCOC1Cc1cnn(-c2ccc(F)cn2)c1 (single isomer, unassigned; (-)) [Example 44, (−)-[2-[[1-(5-fluoropyridin-2-yl)-1H-pyrazol-4-yl]methyl]-1,3-oxazinan-3-yl] [5-fluoro-2-(pyrimidin-2-yl)phenyl]methanone]",–
21.7 nM,59.1 nM,"Cc1ccc(-n2nccn2)c(C(=O)N2CCOC2Cn2ccc(-c3ccc(F)cc3)n2)n1 (single isomer, unassigned; (-)) [Example 26, (−)-(2-[[3-(4-fluorophenyl)-1H-pyrazol-1-yl]methyl]-1,3-oxazolidin-3-yl) [6-methyl-3-(2H-1,2,3-triazol-2-yl)pyridin-2-yl] methanone]",–
34.4 nM,22.6 nM,"Cc1ccc(-c2ncccn2)c(C(=O)N2CCCOC2Cn2cc(-c3ccc(F)cc3)cn2)n1 (single isomer, unassigned; (-)) [Example 32, (−)-(2-[[4-(4-fluorophenyl)-1H-pyrazol-1-yl]methyl]-l,3-oxazinan-3-yl)[6-methyl-3-(pyrimidin-2-yl)pyridin-2-yl] methanone]",–
31.9 nM,38.7 nM,"Cc1ccc(-n2nccn2)c(C(=O)N2CCOC2Cc2cnn(-c3ccc(F)cn3)c2)c1 (single isomer, unassigned; (-)) [Example 46, (−)-[2-{[1-(5-Fluoropyridin-2-yl)-1H-pyrazol-4-yl]methyl}-1,3-oxazolidin-3-yl][5-methyl-2-(2H-1,2,3-triazol-2-yl)phenyl]methanone]",–
8.3 nM,–,"Cc1ccc(-n2nccn2)c(C(=O)N2CC(C)COC2Cn2cc(-c3ccc(F)cn3)cn2)c1 (single isomer, unassigned; (-)) [Example 40, (−)-[(2S*,5S*)-2-{[4-(5-Fluoropyridin-2-yl)-1H-pyrazol-1-yl]methyl}-5-methyl-1,3-oxazinan-3-yl][5-methyl-2-(2H-1,2,3-triazol-2-yl)phenyl]methanone]",–
3.4 nM,–,"Cc1ccc(-n2nccn2)c(C(=O)N2CCCOC2Cc2cnn(-c3ccc(F)cn3)c2)c1 (single isomer, unassigned; (-)) [Example 47, (−)-[2-{[1-(5-Fluoropyridin-2-yl)-1H-pyrazol-4-yl]methyl}-1,3-oxazinan-3-yl][5-methyl-2-(2H-1,2,3-triazol-2-yl)phenyl]methanone]",–
–,26.7 nM,"Cc1ccc(-c2ncccn2)c(C(=O)N2CCOC2Cn2cc(-c3ccc(F)cc3)cn2)c1 (racemic) [Example 24, (±)-(2-[[4-(4-fluorophenyl)-1H-pyrazol-1-yl]methyl]-1,3-oxazolidin-3-yl)[5-methyl-2-(pyrimidin-2-yl)phenyl]methanone]",–
0.8 nM,–,"Cc1ccc(-n2nccn2)c(C(=O)N2CC(C)COC2Cn2cc(-c3ccc(F)cn3)cn2)c1 (single isomer, unassigned; (-)) [Example 49, (−)-[(2S*,5R*)-2-{[4-(5-Fluoropyridin-2-yl)-1H-pyrazol-1-yl]methyl}-5-methyl-1,3-oxazinan-3-yl][5-methyl-2-(2H-1,2,3-triazol-2-yl)phenyl]methanone]",–
2.6 nM,–,"Cc1ccc(-c2ncccn2)c(C(=O)N2CCCOC2Cn2cc(-c3ccc(F)cc3)cn2)c1 (single isomer, unassigned; (-)) [Example 43, (−)-[2-[[4-(4-fluorophenyl)-1H-pyrazol-1-yl]methyl]-1,3-oxazinan-3-yl][5-methyl-2-(pyrimidin-2-yl)phenyl]methanone]",–
